Measured values taken from patent US12365696B2, “Small-molecule focal adhesion kinase (FAK) inhibitors” (DANA-FARBER CANCER INSTITUTE, INC., priority 2019, dated 2025).
Where two headings read alike, the source gives them in different places.

Experiments:
Experiment in all cases: KINOMEscan
Type in all cases: binding
MYLK4 = MYLK4 (Homo sapiens (Human), UniProt Q86YV6); details: MYLK4, 10000 nM; read-out: Percent Control
AKT2 = AKT2 (Homo sapiens (Human), UniProt P31751); details: AKT2, 10000 nM; read-out: Percent Control
CAMKK1 = CAMKK1 (Homo sapiens (Human), UniProt Q8N5S9); details: CAMKK1, 10000 nM; read-out: Percent Control
AMPK-alpha1 = AMPK-alpha1 (Homo sapiens (Human), UniProt Q13131); details: AMPK-alpha1, 10000 nM; read-out: Percent Control
MARK1 = MARK1 (Homo sapiens (Human), UniProt Q9P0L2); details: MARK1, 10000 nM; read-out: Percent Control
ASK2 = ASK2 (Homo sapiens (Human), UniProt O95382); details: ASK2, 10000 nM; read-out: Percent Control
BRSK2 = BRSK2 (Homo sapiens (Human), UniProt Q8IWQ3); details: BRSK2, 10000 nM; read-out: Percent Control
[1] = molecular target: ABL1(F317I)-phosphorylated (Homo sapiens (Human), UniProt P00519, F317I); details: 10000 nM, read-out: Percent Control
PFTK1 = PFTK1 (Homo sapiens (Human), UniProt O94921); details: PFTK1, 10000 nM; read-out: Percent Control
PRKG2 = PRKG2 (Homo sapiens (Human), UniProt Q13237); details: PRKG2, 10000 nM; read-out: Percent Control
NEK2 = NEK2 (Homo sapiens (Human), UniProt P51955); details: NEK2, 10000 nM; read-out: Percent Control
TIE2 = TIE2 (Homo sapiens (Human), UniProt Q02763); details: TIE2, 10000 nM; read-out: Percent Control
[2] = molecular target: ABL1(Y253F)-phosphorylated (Homo sapiens (Human), UniProt P00519, Y253F); details: 10000 nM, read-out: Percent Control
CDKL2 = CDKL2 (Homo sapiens (Human), UniProt Q92772); details: CDKL2, 10000 nM; read-out: Percent Control
MET(Y1235D) = MET(Y1235D) (Homo sapiens (Human), UniProt P08581, Y1235D); details: 10000 nM, read-out: Percent Control
TBK1 = TBK1 (Homo sapiens (Human), UniProt Q9UHD2); details: TBK1, 10000 nM; read-out: Percent Control
RIOK2 = RIOK2 (Homo sapiens (Human), UniProt Q9BVS4); details: RIOK2, 10000 nM; read-out: Percent Control
CAMK2D = CAMK2D (Homo sapiens (Human), UniProt Q13557); details: 10000 nM, read-out: Percent Control
MINK = MINK (Homo sapiens (Human), UniProt Q8N4C8); details: 10000 nM, read-out: Percent Control
PIP5K1C = PIP5K1C (Homo sapiens (Human), UniProt O60331); details: 10000 nM, read-out: Percent Control
SRPK3 = SRPK3 (Homo sapiens (Human), UniProt Q9UPE1); details: SRPK3, 10000 nM; read-out: Percent Control
ZAK = ZAK (Homo sapiens (Human), UniProt Q9NYL2); details: 10000 nM, read-out: Percent Control
[3] = molecular target: ABL1(Q252H)-nonphosphorylated (Homo sapiens (Human), UniProt P00519, Q252H); details: 10000 nM, read-out: Percent Control
CAMKK2 = CAMKK2 (Homo sapiens (Human), UniProt Q96RR4); details: CAMKK2, 10000 nM; read-out: Percent Control
CDC2L1 = CDC2L1 (Homo sapiens (Human), UniProt P21127); details: CDC2L1, 10000 nM; read-out: Percent Control
AKT1 = AKT1 (Homo sapiens (Human), UniProt P31749); details: AKT1, 10000 nM; read-out: Percent Control
CAMK2A = CAMK2A (Homo sapiens (Human), UniProt Q9UQM7); details: 10000 nM, read-out: Percent Control
[4] = molecular target: ABL1(F317I)-nonphosphorylated (Homo sapiens (Human), UniProt P00519, F317I); details: 10000 nM, read-out: Percent Control
ACVR2B = ACVR2B (Homo sapiens (Human), UniProt Q13705); details: 10000 nM, read-out: Percent Control
DAPK2 = DAPK2 (Homo sapiens (Human), UniProt Q9UIK4); details: DAPK2, 10000 nM; read-out: Percent Control
CLK4 = CLK4 (Homo sapiens (Human), UniProt Q9HAZ1); details: CLK4, 10000 nM; read-out: Percent Control
ABL1-nonphosphorylated = ABL1-nonphosphorylated (Homo sapiens (Human), UniProt P00519); details: 10000 nM, read-out: Percent Control
[5] = molecular target: (Homo sapiens (Human), UniProt P57078); details: read-out: Percent Control
MAK = MAK (Homo sapiens (Human), UniProt P20794); details: 10000 nM, read-out: Percent Control

CAMKK1, sequence (Q8N5S9 whole entry): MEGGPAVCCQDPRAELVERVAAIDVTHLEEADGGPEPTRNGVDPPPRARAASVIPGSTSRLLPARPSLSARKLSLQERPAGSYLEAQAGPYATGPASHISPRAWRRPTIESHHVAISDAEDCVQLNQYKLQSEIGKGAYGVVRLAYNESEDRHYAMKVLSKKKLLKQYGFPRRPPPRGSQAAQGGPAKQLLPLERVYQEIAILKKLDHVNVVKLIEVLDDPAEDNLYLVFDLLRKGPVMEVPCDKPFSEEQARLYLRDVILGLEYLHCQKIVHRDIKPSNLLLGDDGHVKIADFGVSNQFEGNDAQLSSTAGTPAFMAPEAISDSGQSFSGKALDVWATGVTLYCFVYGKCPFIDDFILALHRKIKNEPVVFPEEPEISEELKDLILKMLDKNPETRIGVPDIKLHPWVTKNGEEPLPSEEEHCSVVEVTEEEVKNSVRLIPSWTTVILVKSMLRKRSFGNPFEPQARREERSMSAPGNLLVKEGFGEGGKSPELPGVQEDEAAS
MYLK4, sequence (Q86YV6 whole entry): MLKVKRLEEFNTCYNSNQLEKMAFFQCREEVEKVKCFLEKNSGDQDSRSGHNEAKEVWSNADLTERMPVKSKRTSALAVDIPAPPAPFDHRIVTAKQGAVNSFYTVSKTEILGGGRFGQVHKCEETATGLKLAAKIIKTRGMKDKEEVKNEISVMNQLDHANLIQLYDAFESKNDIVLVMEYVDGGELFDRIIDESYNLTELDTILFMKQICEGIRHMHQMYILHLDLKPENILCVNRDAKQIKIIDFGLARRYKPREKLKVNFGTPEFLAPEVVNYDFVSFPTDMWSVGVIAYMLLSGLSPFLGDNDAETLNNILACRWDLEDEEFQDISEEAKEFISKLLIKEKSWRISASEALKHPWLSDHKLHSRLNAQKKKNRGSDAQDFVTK
PRKG2, sequence (Q13237 whole entry): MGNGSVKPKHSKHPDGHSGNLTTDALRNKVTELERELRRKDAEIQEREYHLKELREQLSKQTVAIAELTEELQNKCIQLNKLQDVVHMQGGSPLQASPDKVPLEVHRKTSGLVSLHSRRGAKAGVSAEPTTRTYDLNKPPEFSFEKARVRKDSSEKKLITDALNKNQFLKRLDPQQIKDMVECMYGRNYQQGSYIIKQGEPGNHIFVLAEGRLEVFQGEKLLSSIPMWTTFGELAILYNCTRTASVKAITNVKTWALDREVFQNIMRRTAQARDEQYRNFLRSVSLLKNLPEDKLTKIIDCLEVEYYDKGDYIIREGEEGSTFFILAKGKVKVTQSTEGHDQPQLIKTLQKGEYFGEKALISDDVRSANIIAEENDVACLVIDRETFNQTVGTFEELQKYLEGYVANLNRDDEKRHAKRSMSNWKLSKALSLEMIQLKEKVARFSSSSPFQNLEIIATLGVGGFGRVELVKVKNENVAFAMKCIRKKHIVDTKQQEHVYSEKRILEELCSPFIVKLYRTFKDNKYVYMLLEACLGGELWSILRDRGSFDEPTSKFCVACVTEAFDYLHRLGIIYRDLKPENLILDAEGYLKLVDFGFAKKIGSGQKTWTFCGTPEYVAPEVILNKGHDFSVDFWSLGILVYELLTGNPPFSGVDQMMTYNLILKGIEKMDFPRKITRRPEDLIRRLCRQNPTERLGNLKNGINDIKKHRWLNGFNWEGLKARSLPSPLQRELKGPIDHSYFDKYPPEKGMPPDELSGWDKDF
CLK4, sequence (Q9HAZ1 whole entry): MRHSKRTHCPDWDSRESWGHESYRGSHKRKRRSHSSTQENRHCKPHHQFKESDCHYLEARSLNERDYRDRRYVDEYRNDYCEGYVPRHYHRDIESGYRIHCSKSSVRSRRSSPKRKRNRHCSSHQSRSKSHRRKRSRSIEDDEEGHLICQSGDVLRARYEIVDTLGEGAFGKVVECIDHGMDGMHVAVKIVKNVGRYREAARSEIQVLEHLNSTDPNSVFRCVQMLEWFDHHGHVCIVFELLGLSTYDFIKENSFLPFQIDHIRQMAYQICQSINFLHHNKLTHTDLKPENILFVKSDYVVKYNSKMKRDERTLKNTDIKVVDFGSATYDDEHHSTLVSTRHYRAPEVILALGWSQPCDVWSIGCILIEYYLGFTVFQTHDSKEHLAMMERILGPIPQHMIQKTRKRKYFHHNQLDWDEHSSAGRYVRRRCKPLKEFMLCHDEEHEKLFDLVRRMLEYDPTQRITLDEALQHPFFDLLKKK
MET(Y1235D), sequence (P08581 25-1390 Y1235D): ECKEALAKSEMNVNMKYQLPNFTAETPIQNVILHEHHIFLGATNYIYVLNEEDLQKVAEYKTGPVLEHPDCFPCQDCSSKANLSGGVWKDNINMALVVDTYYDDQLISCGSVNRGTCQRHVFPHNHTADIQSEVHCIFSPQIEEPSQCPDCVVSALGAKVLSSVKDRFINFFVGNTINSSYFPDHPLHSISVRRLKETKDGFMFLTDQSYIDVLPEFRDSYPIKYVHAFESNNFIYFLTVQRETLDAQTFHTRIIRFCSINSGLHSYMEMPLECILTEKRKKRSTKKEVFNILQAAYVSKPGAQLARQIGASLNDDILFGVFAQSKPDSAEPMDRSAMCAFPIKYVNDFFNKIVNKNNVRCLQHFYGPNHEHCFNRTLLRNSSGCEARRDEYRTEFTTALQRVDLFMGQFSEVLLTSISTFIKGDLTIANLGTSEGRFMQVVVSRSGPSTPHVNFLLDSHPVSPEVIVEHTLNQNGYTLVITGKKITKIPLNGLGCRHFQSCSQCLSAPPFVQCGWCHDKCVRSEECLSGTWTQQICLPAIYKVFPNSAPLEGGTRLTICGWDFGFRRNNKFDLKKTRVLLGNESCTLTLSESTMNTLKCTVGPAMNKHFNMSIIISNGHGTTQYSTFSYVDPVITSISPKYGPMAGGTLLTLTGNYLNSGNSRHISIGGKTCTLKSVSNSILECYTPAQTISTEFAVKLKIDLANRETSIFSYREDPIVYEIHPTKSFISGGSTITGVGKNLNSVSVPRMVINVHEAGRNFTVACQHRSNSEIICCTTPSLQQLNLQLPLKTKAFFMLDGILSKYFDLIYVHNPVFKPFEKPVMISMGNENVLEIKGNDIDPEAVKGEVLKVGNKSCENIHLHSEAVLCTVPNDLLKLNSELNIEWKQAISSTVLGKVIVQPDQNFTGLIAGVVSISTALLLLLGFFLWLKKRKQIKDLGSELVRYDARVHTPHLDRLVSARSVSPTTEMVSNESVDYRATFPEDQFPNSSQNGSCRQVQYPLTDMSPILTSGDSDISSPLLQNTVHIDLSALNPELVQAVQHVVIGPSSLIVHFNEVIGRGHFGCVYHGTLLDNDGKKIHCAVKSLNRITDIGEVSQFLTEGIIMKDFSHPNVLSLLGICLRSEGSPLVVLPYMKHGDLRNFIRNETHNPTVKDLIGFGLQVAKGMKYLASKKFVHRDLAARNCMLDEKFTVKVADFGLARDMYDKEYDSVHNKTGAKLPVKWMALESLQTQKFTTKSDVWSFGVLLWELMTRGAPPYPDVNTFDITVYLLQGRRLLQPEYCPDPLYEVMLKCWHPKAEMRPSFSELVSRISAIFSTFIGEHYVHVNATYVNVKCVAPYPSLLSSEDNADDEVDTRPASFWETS
AKT1, sequence (P31749 whole entry): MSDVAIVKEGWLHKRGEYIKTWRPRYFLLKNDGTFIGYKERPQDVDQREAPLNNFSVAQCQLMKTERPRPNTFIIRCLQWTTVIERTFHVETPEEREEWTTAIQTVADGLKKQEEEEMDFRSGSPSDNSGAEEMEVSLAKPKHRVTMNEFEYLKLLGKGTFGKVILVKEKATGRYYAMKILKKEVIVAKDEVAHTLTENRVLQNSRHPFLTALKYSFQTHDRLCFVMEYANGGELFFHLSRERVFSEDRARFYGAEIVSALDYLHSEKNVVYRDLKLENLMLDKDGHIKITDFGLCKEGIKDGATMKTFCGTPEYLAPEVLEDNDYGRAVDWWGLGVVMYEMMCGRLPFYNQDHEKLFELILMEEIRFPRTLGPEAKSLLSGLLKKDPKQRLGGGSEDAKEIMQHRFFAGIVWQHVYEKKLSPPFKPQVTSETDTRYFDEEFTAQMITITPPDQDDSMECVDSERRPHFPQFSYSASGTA
BRSK2, sequence (Q8IWQ3 whole entry): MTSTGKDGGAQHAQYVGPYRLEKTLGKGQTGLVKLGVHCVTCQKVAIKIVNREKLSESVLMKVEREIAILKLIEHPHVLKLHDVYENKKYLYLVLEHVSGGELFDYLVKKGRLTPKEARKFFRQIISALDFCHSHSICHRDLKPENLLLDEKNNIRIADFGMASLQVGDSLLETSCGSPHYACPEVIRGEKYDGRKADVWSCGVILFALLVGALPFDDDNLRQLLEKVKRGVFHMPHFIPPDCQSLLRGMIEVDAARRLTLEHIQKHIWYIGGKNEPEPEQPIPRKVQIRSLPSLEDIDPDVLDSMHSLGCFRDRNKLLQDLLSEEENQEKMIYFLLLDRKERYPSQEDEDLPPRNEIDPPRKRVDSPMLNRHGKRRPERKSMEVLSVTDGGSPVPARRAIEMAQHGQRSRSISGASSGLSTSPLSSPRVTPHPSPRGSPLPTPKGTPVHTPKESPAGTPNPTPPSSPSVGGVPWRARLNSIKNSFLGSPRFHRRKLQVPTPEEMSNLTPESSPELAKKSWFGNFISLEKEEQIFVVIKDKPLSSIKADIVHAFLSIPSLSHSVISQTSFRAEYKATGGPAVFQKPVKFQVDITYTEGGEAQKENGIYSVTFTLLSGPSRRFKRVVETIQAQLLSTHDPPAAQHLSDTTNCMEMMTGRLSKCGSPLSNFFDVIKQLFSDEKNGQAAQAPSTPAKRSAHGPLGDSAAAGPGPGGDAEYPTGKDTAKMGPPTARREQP

Row | SMILES | remaining binding at 10 µM (MYLK4) [%] | remaining binding at 10 µM (AKT2) [%] | remaining binding at 10 µM (CAMKK1) [%] | remaining binding at 10 µM (AMPK-alpha1) [%] | remaining binding at 10 µM (MARK1) [%] | remaining binding at 10 µM (ASK2) [%] | remaining binding at 10 µM (BRSK2) [%] | remaining binding at 10 µM [1] [%] | remaining binding at 10 µM (PFTK1) [%] | remaining binding at 10 µM (PRKG2) [%] | remaining binding at 10 µM (NEK2) [%] | remaining binding at 10 µM (TIE2) [%] | remaining binding at 10 µM [2] [%] | remaining binding at 10 µM (CDKL2) [%] | remaining binding at 10 µM (MET(Y1235D)) [%] | remaining binding at 10 µM (TBK1) [%] | remaining binding at 10 µM (RIOK2) [%] | remaining binding at 10 µM (CAMK2D) [%] | remaining binding at 10 µM (MINK) [%] | remaining binding at 10 µM (PIP5K1C) [%] | also measured
1 | COc1cc(N2CCC(N3CCN(C)CC3)CC2)ccc1Nc1ncc2c(n1)N(C)c1sc(C)nc1C(=O)N2 [Compound 3, 6-((2-methoxy-4-(4-(4-methylpiperazin-1-yl)piperidin-1-yl)phenyl)amino)-2,4-dimethyl-4,9-dihydro-10H-pyrimido[5,4-b]thiazolo[5,4-e][1,4]diazepin-10-one] | 77 | 75 | 84 | 79 | 87 | 100 | 78 | 14 | 90 | 73 | 84 | 83 | 47 | 75 | 90 | 71 | 82 | 82 | 100 | 99 | remaining binding at 10 µM (SRPK3): 75%; remaining binding at 10 µM (ZAK): 92%; remaining binding at 10 µM [3]: 7.8%; remaining binding at 10 µM (CAMKK2): 80%; remaining binding at 10 µM (CDC2L1): 74%; remaining binding at 10 µM (AKT1): 89%; remaining binding at 10 µM (CAMK2A): 76%; remaining binding at 10 µM [4]: 3.8%; remaining binding at 10 µM (ACVR2B): 92%; remaining binding at 10 µM (DAPK2): 60%; remaining binding at 10 µM (CLK4): 76%; remaining binding at 10 µM (ABL1-nonphosphorylated): 25%; remaining binding at 10 µM ([5]; PIPK4, 10000 nM): 100%; remaining binding at 10 µM (MAK): 71%
2 | COc1cc(N2CCC(N3CCN(C)CC3)CC2)ccc1Nc1ncc2c(n1)N(C)c1sc(C)nc1C(=O)N2C [Compound 5, 6-((2-methoxy-4-(4-(4-methylpiperazin-1-yl)piperidin-1-yl)phenyl)amino)-2,4,9-trimethyl-4,9-dihydro-10H-pyrimido[5,4-b]thiazolo[5,4-e][1,4]diazepin-10-one] | 100 | 100 | 100 | 91 | 89 | 100 | 91 | 26 | 100 | 100 | 100 | 100 | 100 | 95 | 98 | 88 | 100 | 92 | 100 | 95 | remaining binding at 10 µM (SRPK3): 100%; remaining binding at 10 µM (ZAK): 100%; remaining binding at 10 µM [3]: 93%; remaining binding at 10 µM (CAMKK2): 88%; remaining binding at 10 µM (CDC2L1): 100%; remaining binding at 10 µM (AKT1): 100%; remaining binding at 10 µM (CAMK2A): 100%; remaining binding at 10 µM [4]: 48%; remaining binding at 10 µM (ACVR2B): 100%; remaining binding at 10 µM (DAPK2): 83%; remaining binding at 10 µM (CLK4): 85%; remaining binding at 10 µM (ABL1-nonphosphorylated): 77%; remaining binding at 10 µM ([5]; RIPK4, 10000 nM): 100%; remaining binding at 10 µM (MAK): 100%
